PubChem BioAssay (NCI)
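These data come from cells grown in 96-well plates and exposed to compound for 48 hours at five concentrations. The concentration for 50% growth inhibition is given as GI50. Definition used: TGI = concentration required for complete inhibition of growth.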

How the values were obtained:
Assay in all cases: inhibition of tumour cell growth, NCI panel, 48 h
SNB-75 CNS = test system: SNB-75 CNS
DU-145 prostate = test system: DU-145 prostate
ACHN renal = test system: ACHN renal
MDA-MB-231 breast = test system: MDA-MB-231 breast
SN12C renal = test system: SN12C renal
CAKI-1 renal = test system: CAKI-1 renal
HS 578T breast = test system: HS 578T breast
HCT-15 colon = test system: HCT-15 colon
NCI-H23 lung = test system: NCI-H23 lung
SK-MEL-28 melanoma = test system: SK-MEL-28 melanoma
UACC-257 melanoma = test system: UACC-257 melanoma
NCI-H460 lung = test system: NCI-H460 lung
CCRF-CEM leukemia = test system: CCRF-CEM leukemia
LOX IMVI melanoma = test system: LOX IMVI melanoma
NCI/ADR-RES ovarian = test system: NCI/ADR-RES ovarian
SK-OV-3 ovarian = test system: SK-OV-3 ovarian
SF-268 CNS = test system: SF-268 CNS
HOP-62 NSCLC = test system: HOP-62 NSCLC
SK-MEL-2 melanoma = test system: SK-MEL-2 melanoma
SW-620 colon = test system: SW-620 colon
OVCAR-3 ovarian = test system: OVCAR-3 ovarian
HCC-2998 colon = test system: HCC-2998 colon
HCT-116 colon = test system: HCT-116 colon
HT29 colon = test system: HT29 colon
RXF 393 renal = test system: RXF 393 renal
SF-539 CNS = test system: SF-539 CNS
SR leukemia = test system: SR leukemia
MCF7 breast = test system: MCF7 breast
IGROV1 ovarian = test system: IGROV1 ovarian
MDA-MB-435 = test system: MDA-MB-435
SF-295 CNS = test system: SF-295 CNS
COLO 205 colon = test system: COLO 205 colon
T-47D breast = test system: T-47D breast
M14 melanoma = test system: M14 melanoma
SNB-19 CNS = test system: SNB-19 CNS
OVCAR-4 ovarian = test system: OVCAR-4 ovarian
TK-10 renal = test system: TK-10 renal
PC-3 prostate = test system: PC-3 prostate
MOLT-4 leukemia = test system: MOLT-4 leukemia
RPMI-8226 leukemia = test system: RPMI-8226 leukemia
A549 NSCLC = test system: A549 NSCLC
U251 CNS = test system: U251 CNS
SK-MEL-5 melanoma = test system: SK-MEL-5 melanoma
OVCAR-5 ovarian = test system: OVCAR-5 ovarian
786-0 renal = test system: 786-0 renal
OVCAR-8 ovarian = test system: OVCAR-8 ovarian
KM12 colon = test system: KM12 colon
K-562 leukemia = test system: K-562 leukemia
HL-60(TB) leukemia = test system: HL-60(TB) leukemia
HOP-92 NSCLC = test system: HOP-92 NSCLC
A498 renal = test system: A498 renal
BT-549 breast = test system: BT-549 breast
MALME-3M melanoma = test system: MALME-3M melanoma
UO-31 renal = test system: UO-31 renal
NCI-H522 lung = test system: NCI-H522 lung
NCI-H226 lung = test system: NCI-H226 lung

Cn1c([N+](=O)[O-])cnc1/C=C1\Oc2cc(Cl)ccc2C1=O
GI50 (SNB-75 CNS): 1800 nM
TGI (SNB-75 CNS): 9380 nM
GI50 (DU-145 prostate): 413 nM
TGI (DU-145 prostate): 4510 nM
GI50 (ACHN renal): 209 nM
GI50 (MDA-MB-231 breast): 940 nM
TGI (MDA-MB-231 breast): > 28500 nM
GI50 (SN12C renal): 713 nM
TGI (SN12C renal): 6650 nM
GI50 (CAKI-1 renal): 296 nM
TGI (CAKI-1 renal): 1180 nM
GI50 (HS 578T breast): 1690 nM
TGI (HS 578T breast): > 24400 nM
GI50 (HCT-15 colon): 267 nM
TGI (HCT-15 colon): 1050 nM
GI50 (NCI-H23 lung): 766 nM
TGI (NCI-H23 lung): 4470 nM
GI50 (SK-MEL-28 melanoma): 721 nM
TGI (SK-MEL-28 melanoma): 3820 nM
GI50 (UACC-257 melanoma): 997 nM
TGI (UACC-257 melanoma): 4990 nM
GI50 (NCI-H460 lung): 297 nM
TGI (NCI-H460 lung): 3400 nM
GI50 (CCRF-CEM leukemia): 148 nM
TGI (CCRF-CEM leukemia): 754 nM
GI50 (LOX IMVI melanoma): 200 nM
TGI (LOX IMVI melanoma): 553 nM
GI50 (NCI/ADR-RES ovarian): 884 nM
TGI (NCI/ADR-RES ovarian): > 100000 nM
GI50 (SK-OV-3 ovarian): 1940 nM
TGI (SK-OV-3 ovarian): > 22800 nM
GI50 (SF-268 CNS): 371 nM
TGI (SF-268 CNS): 2850 nM
GI50 (HOP-62 NSCLC): 1880 nM
TGI (HOP-62 NSCLC): 6070 nM
GI50 (SK-MEL-2 melanoma): 436 nM
TGI (SK-MEL-2 melanoma): 2000 nM
GI50 (SW-620 colon): 159 nM
TGI (SW-620 colon): 1060 nM
GI50 (OVCAR-3 ovarian): 441 nM
TGI (OVCAR-3 ovarian): 2310 nM
GI50 (HCC-2998 colon): 2040 nM
TGI (HCC-2998 colon): 4810 nM
GI50 (HCT-116 colon): 201 nM
TGI (HCT-116 colon): 806 nM
GI50 (HT29 colon): 203 nM
TGI (HT29 colon): 657 nM
GI50 (RXF 393 renal): 762 nM
TGI (RXF 393 renal): 2370 nM
GI50 (SF-539 CNS): 1710 nM
TGI (SF-539 CNS): 4810 nM
GI50 (SR leukemia): 39.3 nM
TGI (SR leukemia): 344 nM
GI50 (MCF7 breast): 712 nM
TGI (MCF7 breast): 13300 nM
GI50 (IGROV1 ovarian): 783 nM
TGI (IGROV1 ovarian): > 20200 nM
GI50 (MDA-MB-435): 260 nM
TGI (MDA-MB-435): 1050 nM
GI50 (SF-295 CNS): 2720 nM
TGI (SF-295 CNS): > 42700 nM
GI50 (COLO 205 colon): 742 nM
TGI (COLO 205 colon): 3590 nM
GI50 (T-47D breast): 21500 nM
TGI (T-47D breast): > 100000 nM
GI50 (M14 melanoma): 499 nM
TGI (M14 melanoma): 4610 nM
GI50 (SNB-19 CNS): 1640 nM
TGI (SNB-19 CNS): 6210 nM
GI50 (OVCAR-4 ovarian): 2480 nM
TGI (OVCAR-4 ovarian): > 21500 nM
GI50 (TK-10 renal): 1330 nM
TGI (TK-10 renal): 4810 nM
GI50 (PC-3 prostate): 1360 nM
TGI (PC-3 prostate): > 24100 nM
GI50 (MOLT-4 leukemia): 212 nM
TGI (MOLT-4 leukemia): 2320 nM
GI50 (RPMI-8226 leukemia): 1730 nM
TGI (RPMI-8226 leukemia): > 20500 nM
GI50 (A549 NSCLC): 1700 nM
TGI (A549 NSCLC): 7060 nM
GI50 (U251 CNS): 1530 nM
TGI (U251 CNS): 5070 nM
GI50 (SK-MEL-5 melanoma): 289 nM
TGI (SK-MEL-5 melanoma): 1220 nM
GI50 (OVCAR-5 ovarian): 2470 nM
TGI (OVCAR-5 ovarian): 7840 nM
GI50 (786-0 renal): 1080 nM
TGI (786-0 renal): 4750 nM
GI50 (OVCAR-8 ovarian): 401 nM
TGI (OVCAR-8 ovarian): > 100000 nM
GI50 (KM12 colon): 501 nM
TGI (KM12 colon): 6780 nM
GI50 (K-562 leukemia): 1360 nM
TGI (K-562 leukemia): 21000 nM
GI50 (HL-60(TB) leukemia): 421 nM
TGI (HL-60(TB) leukemia): 5040 nM
GI50 (HOP-92 NSCLC): 1320 nM
TGI (HOP-92 NSCLC): 5140 nM
GI50 (A498 renal): 1950 nM
TGI (A498 renal): 9970 nM
GI50 (BT-549 breast): 996 nM
TGI (BT-549 breast): 4900 nM
GI50 (MALME-3M melanoma): 837 nM
TGI (MALME-3M melanoma): 4130 nM
GI50 (UO-31 renal): 250 nM
TGI (UO-31 renal): 1300 nM
GI50 (NCI-H522 lung): 679 nM
TGI (NCI-H522 lung): 2360 nM
GI50 (NCI-H226 lung): 2050 nM
TGI (NCI-H226 lung): 8410 nM
